These results are taken from patent publication US20250042904A1, “COMPOUNDS USED AS SRC INHIBITORS” (WIGEN BIOMEDICINE TECHNOLOGY (SHANGHAI) CO., LTD., priority 2021, published 2025).

Where only a bound is given, the exact number is not on record here.

One data set concerns the target recombinant protein Src (Homo sapiens (Human), UniProt P12931). Briefly: In vitro assay for inhibiting Src kinase activity (biotin-labeled TK substrate, Sa-XL 665, Cryptate-labeled antibody). Format: biochemical. The conditions noted are these: read-out: IC50, inhibitory activity against recombinant protein Src. The procedure:
After the compound serially diluted with DMSO and a Src recombinant protein were incubated at room temperature for 10 min, the reaction was initiated by the addition of a biotin-labeled TK substrate and ATP. After the mixture was left to stand at room temperature for 40 min Sa-XL 665 and a Cryptate-labeled antibody were added. The fluorescence values at 615 nm and 665 nm were measured, and the ratio of 665 nm to 615 nm was calculated. The inhibition percentages and IC50 of the compounds were calculated compared to the DMSO group.

Another data set deals with PC3 cells. Nature of the data set: In vitro anti-proliferative activity against PC3 cells (agarose, 7 days). Format: cell-based. Conditions: Homo sapiens, PC-3, 168 h, 7 days of incubation. The procedure:
PC3 cells were mixed with 0.4% agarose at 1200 cells/well, and the mixture was seeded on 0.6% agarose. The compound serially diluted was added, and the cell number was measured after 7 days of incubation. The inhibition percentages and IC50 of the compounds were calculated compared to the DMSO group.

Data set [1] is described as follows: Stability experiment in aqueous hydrochloric acid solution pH 2 (HPLC). It counts as physicochemical. The procedure: 5 mg each of compound 59 and compound A was dissolved in an aqueous hydrochloric acid solution (5 mL) with a pH of 2. The mixture was stirred at room temperature. Samples were taken after 0.5 h for HPLC assay using the following assay conditions. The HPLC assay results are shown in Table 7. • Instrument: Agilent 1260 infinity 2 • Column: Xtimate C18 4.6*150 mm,3 um • Temperature:25° C. • Wave length:210 nm/254 nm • phase A: H2O (0.1% TFA) • phase B: MECN (0.1% TFA) • Gradient: […]

A short description of data set [2]: In vivo pharmacokinetic experiment in CD-1 female mice. The conditions noted are these: mouse, plasma, CD-1 mice. The procedure: CD-1 female mice aged 7 to 10 weeks were intravenously administered and orally administered at a dose of 2 mg/kg and 10 mg/kg, respectively. The mice were fasted for at least 12 h before the administration and given food 4 h after the administration, and they were given ad libitum access to water during the experiment. On the day of the experiment, animals in the intravenous group were administered the corresponding compound by single injection via the tail vein at an administration volume of 10 mL/kg. Animals in the oral group were administered the corresponding compound by single intragastric injection at an administration volume of 10 mL/kg. The animals were weighed before administration, and the administration volume was calculated according to the body weight. The sample collection time was 0.083 h (injection group), 0.167 h, 0.5 h, 1 h, 2 h, 4 h, 8 h, and 24 h. About 200 μL of whole blood was collected through the submaxillary venous plexus at each time point and used to prepare plasma for concentration determination by high-performance liquid chromatography-tandem mass spectrometry (LC-MS/MS). All animals were euthanized with CO2 anesthesia after the PK samples were collected at the last time point. The plasma concentrations were processed using a non-compartmental model of Phoenix WinNonlin™ version 8.3 (Certara) pharmacokinetic software, and the pharmacokinetic parameters were calculated using a linear-log trapezoidal method.

Sequence of recombinant protein Src (P12931 whole entry, looked up): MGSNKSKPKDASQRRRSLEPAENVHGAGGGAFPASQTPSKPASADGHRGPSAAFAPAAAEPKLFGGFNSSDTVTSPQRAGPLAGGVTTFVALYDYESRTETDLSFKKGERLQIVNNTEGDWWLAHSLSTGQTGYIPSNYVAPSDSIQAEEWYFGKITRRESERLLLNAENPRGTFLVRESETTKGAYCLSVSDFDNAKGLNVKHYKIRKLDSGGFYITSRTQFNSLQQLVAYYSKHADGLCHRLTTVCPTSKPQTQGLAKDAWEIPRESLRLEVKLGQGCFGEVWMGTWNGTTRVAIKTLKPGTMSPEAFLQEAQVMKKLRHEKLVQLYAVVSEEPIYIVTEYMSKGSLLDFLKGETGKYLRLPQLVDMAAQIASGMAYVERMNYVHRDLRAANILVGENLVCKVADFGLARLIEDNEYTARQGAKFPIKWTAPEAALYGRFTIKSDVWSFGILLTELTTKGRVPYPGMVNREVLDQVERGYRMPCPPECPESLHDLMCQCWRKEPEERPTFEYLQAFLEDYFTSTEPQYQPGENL

As for `CN(C)C1CCN(CCn2nc(-c3ccc(NC(=O)OC(C)(C)C)c4c3OCO4)c3c(N)ncnc32)CC1` [Compound 1], the IC50 at recombinant protein Src is not above 10 nM; in the data set on PC3 cells, 3.5 nM. As to `CN(C)C1CCN(CCn2nc(-c3ccc(NC(=O)OC4CC4)c4c3OCO4)c3c(N)ncnc32)CC1` [Compound 2], the IC50 at recombinant protein Src is not above 10 nM.

Turning to `CN(C)C1CCN(CCn2nc(-c3ccc(NC(=O)OC4(C)CC4)c4c3OCO4)c3c(N)ncnc32)CC1` [Compound 3], the values for the IC50 at recombinant protein Src and in the data set on PC3 cells were not above 10 nM and 4.8 nM, respectively. `CN(C)C1CCN(CCn2nc(-c3ccc(NC(=O)OC4CCC4)c4c3OCO4)c3c(N)ncnc32)CC1` [Compound 4]: the 50% inhibitory concentration (IC50) at recombinant protein Src is not above 10 nM.

With `CN(C)C1CCN(CCn2nc(-c3ccc(NC(=O)OC4(C)CCC4)c4c3OCO4)c3c(N)ncnc32)CC1` [Compound 5], the concentration for half-maximal inhibition (IC50) is not above 10 nM on recombinant protein Src and 4.2 nM in the data set with PC3 cells. `CN(C)C1CCN(CCn2nc(-c3ccc(NC(=O)OC4C5CC4C5)c4c3OCO4)c3c(N)ncnc32)CC1` (stereo not shown) [Compound 6]: the IC50 at recombinant protein Src was not above 10 nM. On the same count and under the same terms, the same measure for `CN(C)C1CCN(CCn2nc(-c3ccc(NC(=O)OC45CC(C4)C5)c4c3OCO4)c3c(N)ncnc32)CC1` [Compound 7]: not above 10 nM; for `CC(C)OC(=O)Nc1ccc(-c2nn(CCN3CCC(N(C)C)CC3)c3ncnc(N)c23)c2c1OCO2` [Compound 8]: 10 to 50 nM. Still for that read-out and setting: the same measure for `CCOC(=O)Nc1ccc(-c2nn(CCN3CCC(N(C)C)CC3)c3ncnc(N)c23)c2c1OCO2` [Compound 9]: 10 to 50 nM. The same measure, in the same setting: the same measure for `CN(C)C1CCN(CCn2nc(-c3ccc(NC(=O)OC4CC(F)(F)C4)c4c3OCO4)c3c(N)ncnc32)CC1` [Compound 12]: not above 10 nM; for `CN(C)C1CCN(CCn2nc(-c3ccc(NC(=O)OC4CCCC4)c4c3OCO4)c3c(N)ncnc32)CC1` [Compound 13]: 10 to 50 nM. As for `CN(C)C1CCN(CCn2nc(-c3ccc(NC(=O)OC4COC4)c4c3OCO4)c3c(N)ncnc32)CC1` [Compound 14], the IC50 on recombinant protein Src is not above 10 nM. Same read-out and setting: the same measure for `CN(C)C1CCN(CCn2nc(-c3cc(F)c(NC(=O)OC(C)(C)C)c4c3OCO4)c3c(N)ncnc32)CC1` [Compound 17]: 10 to 50 nM; for `CN(C)C1CCN(CCn2nc(-c3c(F)cc(NC(=O)OC(C)(C)C)c4c3OCO4)c3c(N)ncnc32)CC1` [Compound 18]: 10 to 50 nM. Turning to `CN(C)C1CCN(CCn2nc(-c3cnc(NC(=O)OC(C)(C)C)c4c3OCO4)c3c(N)ncnc32)CC1` [Compound 19], the concentration for half-maximal inhibition (IC50) on recombinant protein Src fell in the range of 10 to 50 nM. Turning to `CN(C)C1CCN(CCn2nc(-c3ncc(NC(=O)OC(C)(C)C)c4c3OCO4)c3c(N)ncnc32)CC1` [Compound 20], the IC50 on recombinant protein Src was 10 to 50 nM.

As to `CN(C1CC1)C1CCN(CCn2nc(-c3ccc(NC(=O)OC(C)(C)C)c4c3OCO4)c3c(N)ncnc32)CC1` [Compound 36], at recombinant protein Src, the concentration for half-maximal inhibition (IC50) was not above 10 nM.

In the case of `CC(C)(C)OC(=O)Nc1ccc(-c2nn(CCN3CCC(N4CCCC4)CC3)c3ncnc(N)c23)c2c1OCO2` [Compound 37], the IC50 at recombinant protein Src was not above 10 nM; in the data set on PC3 cells, 11.7 nM. For `CN(C)[C@H]1CCN(CCn2nc(-c3ccc(NC(=O)OC(C)(C)C)c4c3OCO4)c3c(N)ncnc32)C1` [Compound 38], the IC50 at recombinant protein Src is not above 10 nM. Consider `CN(C)[C@@H]1CCN(CCn2nc(-c3ccc(NC(=O)OC(C)(C)C)c4c3OCO4)c3c(N)ncnc32)C1` [Compound 39], for which the IC50 on recombinant protein Src is not above 10 nM. `CC(C)(C)OC(=O)Nc1ccc(-c2nn(CCN3CCN(CCO)CC3)c3ncnc(N)c23)c2c1OCO2` [Compound 41]: the IC50 at recombinant protein Src was not above 10 nM. Regarding `CN(C)CCN1CCN(CCn2nc(-c3ccc(NC(=O)OC(C)(C)C)c4c3OCO4)c3c(N)ncnc32)CC1` [Compound 42], the IC50 at recombinant protein Src was not above 10 nM.

Regarding `CN(C)CC1CCN(CCn2nc(-c3ccc(NC(=O)OC(C)(C)C)c4c3OCO4)c3c(N)ncnc32)CC1` [Compound 43], the IC50 on recombinant protein Src is not above 10 nM.

Take `CN(C)CCC1CCN(CCn2nc(-c3ccc(NC(=O)OC(C)(C)C)c4c3OCO4)c3c(N)ncnc32)CC1` [Compound 44]: on recombinant protein Src, the 50% inhibitory concentration (IC50) was not above 10 nM. `COCCN1CCN(CCn2nc(-c3ccc(NC(=O)OC(C)(C)C)c4c3OCO4)c3c(N)ncnc32)CC1` [Compound 45]: at recombinant protein Src, the IC50 was not above 10 nM. On to `CC(C)(C)OC(=O)Nc1ccc(-c2nn(CCN3CCC(C#N)CC3)c3ncnc(N)c23)c2c1OCO2` [Compound 46], for which the IC50 at recombinant protein Src is not above 10 nM. For the compound `CN1CCN(C2CCN(CCn3nc(-c4ccc(NC(=O)OC(C)(C)C)c5c4OCO5)c4c(N)ncnc43)CC2)CC1` [Compound 47], the IC50 on recombinant protein Src was not above 10 nM. On the same count and under the same terms, the same measure for `CN1CC(OC(=O)Nc2ccc(-c3nn(CCN4CCC(N5CCC5)CC4)c4ncnc(N)c34)c3c2OCO3)C1` [Compound 48]: not above 10 nM; for `CN1CCC2(CC1)CCN(CCn1nc(-c3ccc(NC(=O)OC(C)(C)C)c4c3OCO4)c3c(N)ncnc31)CC2` [Compound 49]: not above 10 nM. Consider `CN(C)CCN(C)CCn1nc(-c2ccc(NC(=O)OC(C)(C)C)c3c2OCO3)c2c(N)ncnc21` [Compound 50], for which the IC50 at recombinant protein Src is not above 10 nM. Turning to `CN(C)C1CCN(CCn2nc(-c3ccc(NC(=O)OC(C)(C)C)c4c3OC(F)(F)O4)c3c(N)ncnc32)CC1` [Compound 51], on recombinant protein Src, the IC50 is not above 10 nM. For the compound `CN(C)C1CCN(CCCn2nc(-c3ccc(NC(=O)OC(C)(C)C)c4c3OCO4)c3c(N)ncnc32)CC1` [Compound 52], the IC50 at recombinant protein Src was not above 10 nM. Still for that read-out and setting: the same measure for `CC(C)(C)OC(=O)Nc1ccc(-c2nn(CCN3CCC(N4CCOCC4)CC3)c3ncnc(N)c23)c2c1OCO2` [Compound 57]: not above 10 nM; for `COC1CCN(CCn2nc(-c3ccc(NC(=O)OC(C)(C)C)c4c3OCO4)c3c(N)ncnc32)CC1` [Compound 58]: not above 10 nM. Regarding `COc1cc(-c2nn(CCN3CCC(N(C)C)CC3)c3ncnc(N)c23)ccc1NC(=O)OC1CCC1` [Compound 60], on recombinant protein Src, the IC50 is not above 10 nM. Consider `COc1cc(-c2nn(CCN3CCC(N(C)C)CC3)c3ncnc(N)c23)ccc1NC(=O)OC1(C)CCC1` [Compound 61], for which the IC50 at recombinant protein Src is not above 10 nM; with PC3 cells it was 5.6 nM.

Consider `COc1cc(-c2nn(CCN3CCC(N(C)C4CC4)CC3)c3ncnc(N)c23)ccc1NC(=O)OC(C)(C)C` [Compound 62], for which the IC50 is not above 10 nM on recombinant protein Src and 10.1 nM with PC3 cells. For the compound `COc1cc(-c2nn(CCN3CCC(N(C)C)CC3)c3ncnc(N)c23)ccc1NC(=O)OC1CC1` [Compound 63], the IC50 at recombinant protein Src was not above 10 nM. On to `COc1cc(-c2nn(CCN3CCC(N(C)C)CC3)c3ncnc(N)c23)ccc1NC(=O)OC1C2CC1C2` (stereo not shown) [Compound 64], for which the IC50 at recombinant protein Src was not above 10 nM. For the compound `COc1cc(-c2nn(CCN3CCC(N(C)C)CC3)c3ncnc(N)c23)ccc1NC(=O)OC12CC(C1)C2` [Compound 65], the IC50 at recombinant protein Src was not above 10 nM. On to `COc1cc(-c2nn(CCN3CCC(N(C)C4CC4)CC3)c3ncnc(N)c23)ccc1NC(=O)OC1(C)CCC1` [Compound 68], for which the IC50 at recombinant protein Src is not above 10 nM; in the data set on PC3 cells, 15.2 nM. Turning to `COc1cc(-c2nn(CCN3CCC(N(C)C4CC4)CC3)c3ncnc(N)c23)ccc1NC(=O)OC1(C)CC1` [Compound 69], the figures for the IC50 at recombinant protein Src and in the data set with PC3 cells were not above 10 nM and 12.5 nM, respectively. `COc1cc(-c2nn(CCN3CCC(N(C)C)CC3)c3ncnc(N)c23)ccc1NC(=O)OC1CC(F)(F)C1` [Compound 70]: the IC50 on recombinant protein Src was not above 10 nM. In data set [1] (before acid treatment (baseline)), `COc1cc(-c2nn(CCN3CCC(N(C)C)CC3)c3ncnc(N)c23)ccc1NC(=O)OC(C)(C)C` [Compound A, reference compound] came in with an Initial purity of 96.18%. Besides, the “Purity after stirring in an aqueous hydrochloric acid solution with a pH of 2 for 0.5 h” value in data set [1] (pH 2, room temperature, 0.5 h) was “Complete degradation”. Also, in data set [2] (oral administration 10 mg/kg), the AUC(0-t) amounted to 1440 ng·h/mL, the Cmax is 211 ng/mL, the bioavailability was found to be 42.9% and the half-life was 5.7 h. In addition, in data set [2] (iv, injection 2 mg/kg), the AUC(0-t) was found to be 682 ng·h/mL, the clearance was 775 mL/min/kg and the half-life was 6.4 h. For the same compound, the Vd in data set [2] (iv, injection 2 mg/kg, read-out: Vdss) amounted to 15.2 L/kg.

Usually IC50 stands for the point on the concentration scale where inhibition reaches its midpoint. A word on the AUC(0-t): it is exposure summed from dosing to a finite time, without extrapolation to infinity. A lower AUC(0-t) goes with low exposure. One may read the Cmax as the highest concentration seen after dosing. The term bioavailability denotes dose-corrected exposure relative to a reference, in per cent. One may read the half-life as how long it takes for the measured level to halve. Read a high half-life as slow decline. For orientation: clearance means the volume of plasma or blood freed of the substance per unit of time. A low value points to a low capacity for elimination.
